For one test, the target named is PTRGER4 (EP4) (Homo sapiens (Human), UniProt P35408). In words: hEP4 b-arrestin assay (PathHunter HEK 293 PTGER4 b-arrestin cells). It is filed as cell-based. The note with it: hEP4 b-arrestin assay (values without asterisk). Put shortly:
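Stably transfected HEK293 cells carrying EP4–ProLink and β-arrestin 2–EA (β-gal fragment complementation), pre-incubated with compound 15 min at 37 °C, then stimulated with PGE2 (20 nM final) for 120 min at 37 °C. Chemiluminescence read after 1 h detection reagent at room temperature; activity per concentration expressed as percent of DMSO control.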

A further test concerns the target PTGER2 (EP2) (Homo sapiens (Human), UniProt P43116). In words: hEP2 b-arrestin assay (PathHunter HEK 293 PTGER2 b-arrestin cells). Format: cell-based. The note with it: hEP2 b-arrestin assay (values without asterisk). Put shortly: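 HEK293 cells expressing ProLink-tagged EP2 and EA-fused β-arrestin 2 (enzyme fragment complementation) were seeded 24 h, pre-incubated with compound 15 min at 37 °C, then stimulated with 5 μM PGE2 (final) for 120 min.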

The values that follow come from patent publication US12011444B2, “N-substituted indole derivatives as PGE2 receptor modulators” (Idorsia Pharmaceuticals Ltd, priority 2015, dated 2024).

The structures appear in SMILES notation.

PTGER2 (EP2), sequence (P43116 whole entry, the tested form may be a part): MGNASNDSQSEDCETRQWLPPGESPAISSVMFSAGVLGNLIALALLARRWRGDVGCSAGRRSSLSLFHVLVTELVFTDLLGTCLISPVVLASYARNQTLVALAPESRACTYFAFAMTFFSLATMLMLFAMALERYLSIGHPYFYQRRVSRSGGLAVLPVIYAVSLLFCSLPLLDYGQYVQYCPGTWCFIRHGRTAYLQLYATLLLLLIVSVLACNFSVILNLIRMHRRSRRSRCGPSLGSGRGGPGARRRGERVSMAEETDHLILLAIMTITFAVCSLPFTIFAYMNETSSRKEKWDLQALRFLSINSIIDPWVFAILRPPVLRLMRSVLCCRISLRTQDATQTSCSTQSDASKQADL
PTRGER4 (EP4), sequence (P35408 whole entry, looked up, the tested form may be a part): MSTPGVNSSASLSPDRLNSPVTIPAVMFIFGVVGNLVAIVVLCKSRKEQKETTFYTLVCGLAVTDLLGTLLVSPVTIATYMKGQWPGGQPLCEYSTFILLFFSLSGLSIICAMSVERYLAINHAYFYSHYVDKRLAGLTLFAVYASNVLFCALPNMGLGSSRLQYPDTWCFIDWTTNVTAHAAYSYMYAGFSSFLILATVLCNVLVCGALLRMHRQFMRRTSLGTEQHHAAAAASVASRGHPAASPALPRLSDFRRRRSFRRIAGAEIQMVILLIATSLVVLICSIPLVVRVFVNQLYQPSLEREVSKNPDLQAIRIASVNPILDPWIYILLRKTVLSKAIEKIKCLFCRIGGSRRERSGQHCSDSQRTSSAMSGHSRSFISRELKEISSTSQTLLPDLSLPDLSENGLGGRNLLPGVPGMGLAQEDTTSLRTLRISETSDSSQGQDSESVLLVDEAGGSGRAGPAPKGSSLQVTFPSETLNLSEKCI

For `COc1ccc(F)c2c1cc(C#N)n2CCNc1cc(-c2ccc(C(=O)O)c(OC(F)F)c2)ncn1` [Example 917, 4-{6-[2-(2-Cyano-7-fluoro-4-methoxy-indol-1-yl)-ethylamino]-pyrimidin-4-yl}-2-difluoromethoxy-benzoic acid], the IC50 against PTRGER4 (EP4) stood at 35 nM; at PTGER2 (EP2), 24 nM.

For the compound `COc1n[nH]c2cc(-c3cc(NCCn4c(C#N)cc5c(OC)ccc(F)c54)ncn3)ccc12` [Example 918, 7-Fluoro-4-methoxy-1-{2-[6-(3-methoxy-1H-indazol-6-yl)-pyrimidin-4-ylamino]-ethyl}-1H-indole-2-carbonitrile], the results for the IC50 on PTRGER4 (EP4) and on PTGER2 (EP2) were 73 nM and 26 nM, respectively.

Take `COc1ccc(F)c2c1cc(C#N)n2CCNc1cc(-c2ccc3c(c2)N(C)C(=O)NC3)ncn1` [Example 919, 7-Fluoro-4-methoxy-1-{2-[6-(1-methyl-2-oxo-1,2,3,4-tetrahydro-quinazolin-7-yl)-pyrimidin-4-ylamino]-ethyl}-1H-indole-2-carbonitrile]: the half-inhibitory concentration (IC50) at PTRGER4 (EP4) came to 3 nM; on PTGER2 (EP2), 10 nM.

As to `COc1ccc(F)c2c1cc(C#N)n2CCNc1cc(-c2ccc3c(=O)n(C)[nH]c3c2)ncn1` [Example 920, 7-Fluoro-4-methoxy-1-{2-[6-(2-methyl-3-oxo-2,3-dihydro-1H-indazol-6-yl)-pyrimidin-4-ylamino]-ethyl}-1H-indole-2-carbonitrile], the IC50 is 68 nM at PTRGER4 (EP4) and 39 nM against PTGER2 (EP2).

`COc1ccc(F)c2c1cc(C#N)n2CCNc1cc(-c2ccc3c(=O)[nH]n(C)c3c2)ncn1` [Example 921, 7-Fluoro-4-methoxy-1-{2-[6-(1-methyl-3-oxo-2,3-dihydro-1H-indazol-6-yl)-pyrimidin-4-ylamino]-ethyl}-1H-indole-2-carbonitrile]: the IC50 is 9 nM at PTRGER4 (EP4) and 6 nM against PTGER2 (EP2).

On to `CCSc1cc(C(=O)O)cc(-c2cc(NCCn3c(C#N)cc4c(OC)ccc(F)c43)ncn2)c1` [Example 922, 3-{6-[2-(2-Cyano-7-fluoro-4-methoxy-indol-1-yl)-ethylamino]-pyrimidin-4-yl}-5-ethylsulfanyl-benzoic acid], for which the IC50 against PTRGER4 (EP4) and on PTGER2 (EP2) was 19 nM in each case.

Turning to `COc1ccc(F)c2c1cc(C#N)n2CCNc1cc(-c2ccc(-c3cnn[nH]3)cc2)ncn1` [Example 923, 7-Fluoro-4-methoxy-1-(2-{6-[4-(3H-[1,2,3]triazol-4-yl)-phenyl]-pyrimidin-4-ylamino}-ethyl)-1H-indole-2-carbonitrile], the IC50 against PTRGER4 (EP4) is 42 nM; against PTGER2 (EP2) it was 20 nM.

Take `CCOc1cc(-c2cc(NCCn3c(C#N)cc4c(OC)ccc(F)c43)ncn2)ccc1CCC(=O)O` [Example 924, 3-(4-{6-[2-(2-Cyano-7-fluoro-4-methoxy-indol-1-yl)-ethylamino]-pyrimidin-4-yl}-2-ethoxy-phenyl)-propionic acid]: the IC50 at PTRGER4 (EP4) amounted to 308 nM; against PTGER2 (EP2), 224 nM.

For the compound `CCOc1cc(OCCC(=O)O)cc(-c2cc(NCCn3c(C#N)cc4c(OC)ccc(F)c43)ncn2)c1` [Example 926, 3-(3-{6-[2-(2-Cyano-7-fluoro-4-methoxy-indol-1-yl)-ethylamino]-pyrimidin-4-yl}-5-ethoxy-phenoxy)-propionic acid], the IC50 at PTRGER4 (EP4) was found to be 20 nM; on PTGER2 (EP2), 4 nM.

`CCOc1cc(-c2cc(NCCn3c(C#N)cc4c(OC)ccc(F)c43)ncn2)ccc1OCCC(=O)O` [Example 927, 3-(4-{6-[2-(2-Cyano-7-fluoro-4-methoxy-indol-1-yl)-ethylamino]-pyrimidin-4-yl}-2-ethoxy-phenoxy)-propionic acid]: the half-maximal inhibitory concentration (IC50) against PTRGER4 (EP4) amounted to 3 nM; at PTGER2 (EP2), 31 nM.

As for `CCOc1c(C(=O)O)ccc(-c2cc(NCCn3c(C#N)cc4c(OC)ccc(F)c43)ncn2)c1F` [Example 928, 4-{6-[2-(2-Cyano-7-fluoro-4-methoxy-indol-1-yl)-ethylamino]-pyrimidin-4-yl}-2-ethoxy-3-fluoro-benzoic acid], the figures for the IC50 against PTRGER4 (EP4) and at PTGER2 (EP2) were 45 nM and 37 nM, respectively.

For the compound `CCOc1cc(-c2cc(NCCn3c(C#N)cc4c(OC)ccc(F)c43)ncn2)ccc1S(N)(=O)=O` [Example 929, 4-{6-[2-(2-Cyano-7-fluoro-4-methoxy-indol-1-yl)-ethylamino]-pyrimidin-4-yl}-2-ethoxy-benzenesulfonamide], the IC50 came to 33 nM at PTRGER4 (EP4) and 20 nM against PTGER2 (EP2).

As for `CCOc1cc(-c2cc(NCCn3c(C#N)cc4c(OC)ccc(F)c43)ncn2)ccc1-c1cnn[nH]1` [Example 930, 1-(2-{6-[3-Ethoxy-4-(3H-[1,2,3]triazol-4-yl)-phenyl]-pyrimidin-4-ylamino}-ethyl)-7-fluoro-4-methoxy-1H-indole-2-carbonitrile], the IC50 turned out to be 2 nM at PTRGER4 (EP4) and 4 nM against PTGER2 (EP2).

For the compound `CCOc1cc(-c2cc(NCCn3c(C#N)cc4c(OC)ccc(F)c43)ncn2)sc1CCC(=O)O` [Example 932, 3-(5-{6-[2-(2-Cyano-7-fluoro-4-methoxy-indol-1-yl)-ethylamino]-pyrimidin-4-yl}-3-ethoxy-thiophen-2-yl)-propionic acid], the IC50 on PTRGER4 (EP4) is 3 nM; on PTGER2 (EP2), 14 nM.

Turning to `COc1ccc(F)c2c1cc(C#N)n2CCNc1cc(-c2ccc(-c3c(O)c(=O)c3=O)cc2)ncn1` [Example 933, 7-Fluoro-1-(2-{6-[4-(2-hydroxy-3,4-dioxo-cyclobut-1-enyl)-phenyl]-pyrimidin-4-ylamino}-ethyl)-4-methoxy-1H-indole-2-carbonitrile], the IC50 on PTRGER4 (EP4) stood at 4 nM; against PTGER2 (EP2), 12 nM.

As for `CCOc1cc(-c2cc(NCCn3c(C#N)cc4c(OC)ccc(F)c43)ncn2)ccc1C(=O)C(=O)O` [Example 934, (4-{6-[2-(2-Cyano-7-fluoro-4-methoxy-indol-1-yl)-ethylamino]-pyrimidin-4-yl}-2-ethoxy-phenyl)-oxo-acetic acid], the figures for the IC50 on PTRGER4 (EP4) and on PTGER2 (EP2) were 31 nM and 16 nM, respectively.

On to `CCCSc1cc(-c2cc(NCCn3c(C#N)cc4c(OC)ccc(F)c43)ncn2)ccc1C(=O)O` [Example 935, 4-{6-[2-(2-Cyano-7-fluoro-4-methoxy-indol-1-yl)-ethylamino]-pyrimidin-4-yl}-2-propylsulfanyl-benzoic acid], for which the results for the IC50 against PTRGER4 (EP4) and against PTGER2 (EP2) were 4 nM and 7 nM, respectively.

For the compound `CCCSc1cc(-c2cc(NCCn3c(C#N)cc4c(OC)cc(F)cc43)ncn2)ccc1C(=O)O` [Example 936, 4-{6-[2-(2-Cyano-6-fluoro-4-methoxy-indol-1-yl)-ethylamino]-pyrimidin-4-yl}-2-propylsulfanyl-benzoic acid], the values for the half-maximal inhibitory concentration (IC50) against PTRGER4 (EP4) and at PTGER2 (EP2) were 8 nM and 18 nM, respectively.

For the compound `COc1ccc(F)c2c1cc(C#N)n2CCNc1cc(-c2ccc(C(=O)O)c(SC(C)C)c2)ncn1` [Example 937, 4-{6-[2-(2-Cyano-7-fluoro-4-methoxy-indol-1-yl)-ethylamino]-pyrimidin-4-yl}-2-isopropylsulfanyl-benzoic acid], the figures for the concentration for half-maximal inhibition (IC50) at PTRGER4 (EP4) and against PTGER2 (EP2) were 13 nM and 21 nM, respectively.

`COc1cc(F)cc2c1cc(C#N)n2CCNc1cc(-c2ccc(C(=O)O)c(SC(C)C)c2)ncn1` [Example 938, 4-{6-[2-(2-Cyano-6-fluoro-4-methoxy-indol-1-yl)-ethylamino]-pyrimidin-4-yl}-2-isopropylsulfanyl-benzoic acid]: the IC50 against PTRGER4 (EP4) came to 29 nM; against PTGER2 (EP2), 38 nM.

For the compound `CCCc1cc(-c2cc(NCCn3c(C#N)cc4c(OC)ccc(F)c43)ncn2)cc(F)c1C(=O)O` [Example 939, 4-{6-[2-(2-Cyano-7-fluoro-4-methoxy-indol-1-yl)-ethylamino]-pyrimidin-4-yl}-2-fluoro-6-propyl-benzoic acid], the figures for the concentration for half-maximal inhibition (IC50) against PTRGER4 (EP4) and at PTGER2 (EP2) were 17 nM and 15 nM, respectively.

Turning to `CCOc1cc(-c2cc(NCCn3c(C#N)cc4c(C)c(F)cc(F)c43)ncn2)sc1C(=O)O` [Example 940, 5-{6-[2-(2-Cyano-5,7-difluoro-4-methyl-indol-1-yl)-ethylamino]-pyrimidin-4-yl}-3-ethoxy-thiophene-2-carboxylic acid], the IC50 at PTRGER4 (EP4) was found to be 3 nM; against PTGER2 (EP2), 10 nM.

`CCOc1cc(-c2cc(NCCn3c(C#N)cc4c(C)cc(F)c(F)c43)ncn2)sc1C(=O)O` [Example 942, 5-{6-[2-(2-Cyano-6,7-difluoro-4-methyl-indol-1-yl)-ethylamino]-pyrimidin-4-yl}-3-ethoxy-thiophene-2-carboxylic acid]: the figures for the IC50 against PTRGER4 (EP4) and against PTGER2 (EP2) were 6 nM and 3 nM, respectively.

In the case of `CCOc1cc(-c2cc(NCCn3c(C#N)cc4c(OC)cc(F)c(F)c43)ncn2)sc1C(=O)O` [Example 943, 5-{6-[2-(2-Cyano-6,7-difluoro-4-methoxy-indol-1-yl)-ethylamino]-pyrimidin-4-yl}-3-ethoxy-thiophene-2-carboxylic acid], the values for the IC50 on PTRGER4 (EP4) and against PTGER2 (EP2) were 2 nM and 4 nM, respectively.

Turning to `CCOc1cc(-c2cc(NCCn3c(C#N)cc4c(OC)cc(F)c(F)c43)ncn2)ccc1OCC(=O)O` [Example 944, (4-{6-[2-(2-Cyano-6,7-difluoro-4-methoxy-indol-1-yl)-ethylamino]-pyrimidin-4-yl}-2-ethoxy-phenoxy)-acetic acid], the IC50 is 7 nM against PTRGER4 (EP4) and 16 nM on PTGER2 (EP2).

On to `CCOc1cc(-c2cc(NCCn3c(C#N)cc4c(OC)cc(F)c(F)c43)ncn2)ccc1NCC(=O)O` [Example 945, (4-{6-[2-(2-Cyano-6,7-difluoro-4-methoxy-indol-1-yl)-ethylamino]-pyrimidin-4-yl}-2-ethoxy-phenylamino)-acetic acid], for which the IC50 at PTRGER4 (EP4) was found to be 2 nM; on PTGER2 (EP2) it was 9 nM.

Turning to `COc1ccc(F)c2c1cc(C#N)n2CCNc1cc(-c2ccc(C(=O)O)c(CC(C)C)c2)ncn1` [Example 946, 4-{6-[2-(2-Cyano-7-fluoro-4-methoxy-indol-1-yl)-ethylamino]-pyrimidin-4-yl}-2-isobutyl-benzoic acid], the IC50 worked out at 10 nM against PTRGER4 (EP4) and 54 nM at PTGER2 (EP2).

The term IC50 denotes the concentration that gives 50% inhibition. The low end stands for inhibition by little substance, the high end for a need for much substance.
